Test results as given in patent US20170128428A1 (priority 2014, published 2017).

Assays:
[1] = test system: oxaliplatin-induced neuropathy; settings: chronic oxaliplatin, study D0 to D28; group O; FIG. 4
Description: (§1) The animals in the control group received an injection of 5% glucose by the same route, at the same frequency and the same volume.
(§2) These tablets were reduced to a fine powder, and placed in suspension in water containing 0.5% carboxymethylcellulose (Sigma Aldrich, France) in order to obtain a solution at 4 mg/ml. […] The animals in the control group simply received an administration of 0.5% carboxymethylcellulose by the same route, at the same volume and the same frequency.
The rats' tails are submerged in a cold water bath (10° C.). The immersion is maintained until the animal withdraws its tail. The latency of the withdrawal is clocked. Each measurement is done in triplicate.
(§3) The trials were conducted over a period of 3 hours, on all 4 groups of rats. The time t0 corresponds to the moment of the injection.

[2] = test system: oxaliplatin-induced neuropathy; settings: chronic oxaliplatin, study D0 to D28; group O; FIG. 3
Description: as §1, §2
The Von Frey electronic apparatus (Chaplan et al., 1994) includes a portable sleeve made up of an elastic tip connected to a force sensor. The rats are placed in Plexiglas boxes, arranged on a raised grate. After a habituation period of the rats, the tip is applied perpendicularly to the center of the 5 plantar pads of each of rear paw. […] The intensity of the stimulus, the maximum applied pressure (expressed in grams) is recorded by the device upon withdrawal of the paw.
as §3

[3] = Park et al. 2011; treatment using oxaliplatin and/or cisplatin; cited from earlier work
[4] = test system: oxaliplatin-induced neuropathy; settings: chronic oxaliplatin, day 31; group O; FIG. 5
Description: as §1, §2
This test takes place in an arena equipped with a camera in which two animals are placed in one another's presence for 10 minutes. The purpose of this test is to measure the interaction time between the animals. The two studied animals are always part of the same experimental condition group to prevent the behavior of one rat from influencing the other. The rats interact with one another by sniffing, grooming, chasing, etc. An increase in interactions indicates a non-anxious state of the rat, while a decrease and tendency toward prostration indicates an anxious state of the animal. At the beginning of the experiment, the animals are placed in opposite corners of the arena and the handler leaves the room. The arena is cleaned between two experiments to prevent the odors from the previous rats from disrupting the results.
A dose of 5 mg/kg was administered to the animals in groups D and O-D 30 minutes before the test.

[5] = test system: chemically induced neuropathic pain; settings: Kautio et al. 2008; Mitchell et al. 2006; cited from earlier work

O=C1[O][Pt-2]2([NH2+]C3CCCC[C@H]3[NH2+]2)[O]C1=O (stereo in doubt) [oxaliplatin, cis-[(1R, 2R)-1,2-cyclohexanediamine-N, N′] [oxaloto (2)-O, O′] platinum]
sensitivity to cold stimulation compared to Sham group [1]: increased sensitivity
sensitivity to mechanical stimulation compared to Sham group [2]: increased sensitivity to mechanical stimulation
affected patients in whom the neuropathy becomes persistent [3]: approximately 80%
anxiety level (social interaction time) vs Sham group [4]: significantly more anxious than the animals in the Sham group

CN(C)CCC=C1c2ccccc2CCc2ccccc21 [amitriptyline]
relief in patients treated with oxaliplatin [5]: have not provided any relief

NCC1(CC(=O)O)CCCCC1 [gabapentin]
relief in patients treated with oxaliplatin [5]: have not provided any relief
